# In patent US20120141440A1, “FOAMYVIRUS VECTORS AND METHODS OF USE” (priority 2009, published 2012):
# Tested on: 293T cells
# Experiment: Western blot of protein expressed from wild-type and human codon optimized foamyvirus gag, pol and env constructs
# Type: cell-based
# Conditions: optimized vs wild-type sequence
# Source text: To assessing the amount of protein that was present in virus producing cells upon transfection of the human codon usage-optimized cDNAs in comparison with the wild-type sequences, 293T packaging cells were transfected with equal amounts of the corresponding plasmids in sequential dilutions. DNA (pUC19) from a cloning vector was utilized to keep the absolute amount of DNA transfected into 293T cells the same. For FV gag and pol, the only difference between the two plasmids was the optimization of the FV gene for human codon usage. For the PFV env gene, the human optimized ORF in a vector with slice donor and acceptor sites was compared to the non-optimzed sequence expressed without splice sites in the same vector. Additionally, the expression of optimized simian FV (SFV) env contained on pUC19, like the above comparisons, was compared to a non-optimized SFV env contained on a pCL (Promega).
substance,measurement,value
SFV-1 env: Homo sapiens optimized Env cDNA from Simian Foamy Virus (SFV-1) (SEQ. ID. No. 4),protein levels increased through optimization of the FV genes for human codon usage,increased
